From ChEMBL document CHEMBL4138142, “Antibacterial 3,6-Disubstituted 4-Hydroxy-5,6-dihydro-2H-pyran-2-ones from Serratia plymuthica MF371-2” (J Nat Prod, 2017)
Values after ≈ are worked out from the molar mass of the structure shown.

Legend:
Streptococcus pneumoniae [1] = assay: Antibacterial activity against quinolone-resistant Streptococcus pneumoniae TE 122-024 by dilution susceptibility test; format: functional
Streptococcus pneumoniae [2] = assay: Antibacterial activity against macrolide-sensitive Streptococcus pneumoniae SP030 by dilution susceptibility test; format: functional
Bacillus cereus = assay: Antibacterial activity against Bacillus cereus CCUG 7414 by dilution susceptibility test; format: functional
Pseudomonas aeruginosa = assay: Antibacterial activity against Pseudomonas aeruginosa LMG6395 by dilution susceptibility test; format: functional
Streptococcus pyogenes [3] = assay: Antibacterial activity against macrolide-resistant Streptococcus pyogenes 2 Finland by dilution susceptibility test; format: functional
Staphylococcus aureus [4] = assay: Antibacterial activity against mupirocin-resistant Staphylococcus aureus V321 after 16 to 24 hrs by broth microdilution method; format: functional
Streptococcus pneumoniae [5] = assay: Antibacterial activity against tetracycline-resistant Streptococcus pneumoniae TE 122-026 by dilution susceptibility test; format: functional
Staphylococcus aureus [6] = assay: Antibacterial activity against methicillin-resistant Staphylococcus aureus LMG 15975 after 16 to 24 hrs by broth microdilution method; format: functional
[7] = tested on: Staphylococcus epidermidis; assay: Antibacterial activity against methicillin-resistant Staphylococcus epidermidis TA12 by dilution susceptibility test; format: functional
Staphylococcus aureus [8] = assay: Antibacterial activity against methicillin-resistant Staphylococcus aureus PICI after 16 to 24 hrs by broth microdilution method; format: functional
Staphylococcus aureus [9] = assay: Antibacterial activity against macrolide-resistant Staphylococcus aureus PK2 after 16 to 24 hrs by broth microdilution method; format: functional
Staphylococcus aureus [10] = assay: Antibacterial activity against methicillin-resistant Staphylococcus aureus MO17 after 16 to 24 hrs by broth microdilution method; format: functional
[11] = tested on: Staphylococcus epidermidis; assay: Antibacterial activity against methicillin-susceptible Staphylococcus epidermidis RO7 by dilution susceptibility test; format: functional
[12] = Cytotoxicity against human HuH7 cells after 48 hrs by XTT assay; format: cell-based, Huh-7
Staphylococcus aureus [13] = assay: Antibacterial activity against macrolide-resistant Staphylococcus aureus 6 Holland after 16 to 24 hrs by broth microdilution method; format: functional
Streptococcus pneumoniae [14] = assay: Antibacterial activity against macrolide-resistant Streptococcus pneumoniae 158bg by dilution susceptibility test; format: functional
Staphylococcus aureus [15] = assay: Antibacterial activity against macrolide-resistant Staphylococcus aureus 853E after 16 to 24 hrs by broth microdilution method; format: functional
Streptococcus pyogenes [16] = assay: Antibacterial activity against macrolide-sensitive Streptococcus pyogenes 29A-TF by dilution susceptibility test; format: functional
Streptococcus pneumoniae [17] = assay: Antibacterial activity against macrolide-resistant Streptococcus pneumoniae 956 by dilution susceptibility test; format: functional
Staphylococcus aureus [18] = assay: Antibacterial activity against macrolide-resistant Staphylococcus aureus 56 Japan after 16 to 24 hrs by broth microdilution method; format: functional
Staphylococcus aureus [19] = assay: Antibacterial activity against quinolone-resistant Staphylococcus aureus FR 131 after 16 to 24 hrs by broth microdilution method; format: functional
Streptococcus pneumoniae [20] = assay: Antibacterial activity against quinolone-sensitive Streptococcus pneumoniae 19A-TN by dilution susceptibility test; format: functional
Streptococcus pneumoniae [21] = assay: Antibacterial activity against Streptococcus pneumoniae ATCC 49619 by dilution susceptibility test; format: functional
Acinetobacter baumannii = assay: Antibacterial activity against Acinetobacter baumannii LMG1041 after 16 to 24 hrs by broth microdilution method; format: functional
Staphylococcus aureus [22] = assay: Antibacterial activity against methicillin-resistant Staphylococcus aureus 4384 after 16 to 24 hrs by broth microdilution method; format: functional
Enterococcus faecalis [23] = assay: Antibacterial activity against vancomycin-sensitive Enterococcus faecalis 24 by dilution susceptibility test; format: functional
[24] = Cytotoxicity against human MT4 cells after 48 hrs by XTT assay; format: cell-based
Staphylococcus aureus [25] = assay: Antibacterial activity against Staphylococcus aureus CCUG 1800 after 16 to 24 hrs by broth microdilution method; format: functional
Staphylococcus aureus [26] = assay: Antibacterial activity against Staphylococcus aureus ATCC 29213 after 16 to 24 hrs by broth microdilution method; format: functional
[27] = tested on: Mycolicibacterium frederiksbergense; assay: Antibacterial activity against Mycobacterium frederiksbergense by dilution susceptibility test; format: functional
Staphylococcus aureus [28] = assay: Antibacterial activity against tetracycline-resistant Staphylococcus aureus 4216 after 16 to 24 hrs by broth microdilution method; format: functional
Enterococcus faecium = assay: Antibacterial activity against vancomycin-resistant Enterococcus faecium 7 by dilution susceptibility test; format: functional
Staphylococcus aureus [29] = assay: Antibacterial activity against Staphylococcus aureus LMG 10147 after 16 to 24 hrs by broth microdilution method; format: functional
Escherichia coli = assay: Antibacterial activity against Escherichia coli LMG15862 by dilution susceptibility test; format: functional
Klebsiella pneumoniae = assay: Antibacterial activity against Klebsiella pneumoniae LMG20218 by dilution susceptibility test; format: functional
Streptococcus pneumoniae [30] = assay: Antibacterial activity against macrolide-resistant Streptococcus pneumoniae BAA1407 by dilution susceptibility test; format: functional
Streptococcus pyogenes [31] = assay: Antibacterial activity against macrolide-resistant Streptococcus pyogenes 21 Finland by dilution susceptibility test; format: functional
Staphylococcus aureus [32] = assay: Antibacterial activity against mupirocin-resistant Staphylococcus aureus V86 after 16 to 24 hrs by broth microdilution method; format: functional
Enterococcus faecalis [33] = assay: Antibacterial activity against vancomycin-resistant Enterococcus faecalis 12 by dilution susceptibility test; format: functional
Staphylococcus aureus [34] = assay: Antibacterial activity against mupirocin-resistant Staphylococcus aureus V55 after 16 to 24 hrs by broth microdilution method; format: functional
Staphylococcus aureus [35] = assay: Antibacterial activity against mupirocin-resistant Staphylococcus aureus V308 after 16 to 24 hrs by broth microdilution method; format: functional
[36] = Cytotoxicity against human HepG2 cells after 48 hrs by XTT assay; format: cell-based

CCCCCCCCC[C@@H]1CC(O)=C(C(=O)CCC)C(=O)O1
MIC (Streptococcus pneumoniae [1]): 8 µg/mL (≈ 25.8 µM) | MIC (Streptococcus pneumoniae [2]): 8 µg/mL (≈ 25.8 µM) | MIC (Bacillus cereus): ≤ 1 µg/mL | MIC (Pseudomonas aeruginosa): > 64 µg/mL | MIC (Streptococcus pyogenes [3]): 8 µg/mL (≈ 25.8 µM) | MIC (Staphylococcus aureus [4]): 0.1 to 0.25 µg/mL (≈ 0.322 to 0.805 µM) | MIC (Streptococcus pneumoniae [5]): 4 µg/mL (≈ 12.9 µM) | MIC (Staphylococcus aureus [6]): 0.8 µg/mL (≈ 2.58 µM) | MIC [7]: 2 µg/mL (≈ 6.44 µM) | MIC (Staphylococcus aureus [8]): 4 µg/mL (≈ 12.9 µM) | MIC (Staphylococcus aureus [9]): 2 µg/mL (≈ 6.44 µM) | MIC (Staphylococcus aureus [10]): 2 µg/mL (≈ 6.44 µM) | MIC [11]: 1 µg/mL (≈ 3.22 µM) | CC50 at 48 h [12]: 40 µg/mL (≈ 129 µM) | MIC (Staphylococcus aureus [13]): 1 µg/mL (≈ 3.22 µM) | MIC (Streptococcus pneumoniae [14]): 4 µg/mL (≈ 12.9 µM) | MIC (Staphylococcus aureus [15]): 2 µg/mL (≈ 6.44 µM) | MIC (Streptococcus pyogenes [16]): 8 µg/mL (≈ 25.8 µM) | MIC (Streptococcus pneumoniae [17]): 4 µg/mL (≈ 12.9 µM) | MIC (Staphylococcus aureus [18]): 4 µg/mL (≈ 12.9 µM) | MIC (Staphylococcus aureus [19]): 2 µg/mL (≈ 6.44 µM) | MIC (Streptococcus pneumoniae [20]): 8 µg/mL (≈ 25.8 µM) | MIC (Streptococcus pneumoniae [21]): 4 µg/mL (≈ 12.9 µM) | MIC (Acinetobacter baumannii): 12 to 24 µg/mL (≈ 38.7 to 77.3 µM) | MIC (Staphylococcus aureus [22]): 2 µg/mL (≈ 6.44 µM) | MIC (Enterococcus faecalis [23]): 2 µg/mL (≈ 6.44 µM) | CC50 at 48 h [24]: 4.7 µg/mL (≈ 15.1 µM) | MIC (Staphylococcus aureus [25]): 0.25 µg/mL (≈ 0.805 µM) | MIC (Staphylococcus aureus [26]): 4 µg/mL (≈ 12.9 µM) | MIC [27]: ≤ 0.5 µg/mL | MIC (Staphylococcus aureus [28]): 2 µg/mL (≈ 6.44 µM) | MIC (Enterococcus faecium): 2 µg/mL (≈ 6.44 µM) | MIC (Staphylococcus aureus [29]): 0.4 µg/mL (≈ 1.29 µM) | MIC (Escherichia coli): > 64 µg/mL | MIC (Klebsiella pneumoniae): > 64 µg/mL | MIC (Streptococcus pneumoniae [30]): 8 µg/mL (≈ 25.8 µM) | MIC (Streptococcus pyogenes [31]): 8 µg/mL (≈ 25.8 µM) | MIC (Staphylococcus aureus [32]): 0.1 to 0.25 µg/mL (≈ 0.322 to 0.805 µM) | MIC (Enterococcus faecalis [33]): 2 µg/mL (≈ 6.44 µM) | MIC (Staphylococcus aureus [34]): ≤ 0.1 µg/mL | MIC (Staphylococcus aureus [35]): 0.1 to 0.25 µg/mL (≈ 0.322 to 0.805 µM) | CC50 at 48 h [36]: 33 µg/mL (≈ 106 µM)

CCCCCCCCC[C@@H]1CC(O)=C(C(=O)CCCCC)C(=O)O1
MIC (Staphylococcus aureus [6]): 0.6 to 0.8 µg/mL (≈ 1.77 to 2.36 µM) | MIC (Acinetobacter baumannii): 4 to 8 µg/mL (≈ 11.8 to 23.6 µM) | CC50 at 48 h [36]: 15 µg/mL (≈ 44.3 µM)

CCCCCCCC[C@@H]1CC(O)=C(C(=O)CCC)C(=O)O1
MIC (Staphylococcus aureus [6]): 0.8 to 1.5 µg/mL (≈ 2.7 to 5.06 µM) | MIC (Acinetobacter baumannii): 24 to 32 µg/mL (≈ 81 to 108 µM) | CC50 at 48 h [36]: 30 µg/mL (≈ 101 µM)

NC[C@H]1O[C@H](O[C@H]2[C@H](O)[C@@H](O[C@H]3O[C@H](CO)[C@@H](O)[C@H](N)[C@H]3O)[C@H](N)C[C@@H]2N)[C@H](N)C[C@@H]1O [TOBRAMYCIN]
MIC (Enterococcus faecium): > 256 µg/mL | MIC (Enterococcus faecalis [33]): > 256 µg/mL

CN[C@H](CC(C)C)C(=O)N[C@H]1C(=O)N[C@@H](CC(N)=O)C(=O)N[C@H]2C(=O)N[C@H]3C(=O)N[C@H](C(=O)N[C@H](C(=O)O)c4cc(O)cc(O)c4-c4cc3ccc4O)[C@H](O)c3ccc(c(Cl)c3)Oc3cc2cc(c3O[C@@H]2O[C@H](CO)[C@@H](O)[C@H](O)[C@H]2O[C@H]2C[C@](C)(N)[C@H](O)[C@H](C)O2)Oc2ccc(cc2Cl)[C@H]1O [VANCOMYCIN]
MIC (Enterococcus faecium): > 256 µg/mL | MIC (Enterococcus faecalis [33]): > 256 µg/mL

CCCCCCCCC[C@@H]1CC(O)=C(C(=O)CCCC)C(=O)O1
MIC (Staphylococcus aureus [6]): < 0.6 µg/mL | MIC (Acinetobacter baumannii): 8 to 16 µg/mL (≈ 24.7 to 49.3 µM) | CC50 at 48 h [36]: 36 µg/mL (≈ 111 µM)

CCCCCCCCC[C@@H]1CC(O)=C(C(=O)CC)C(=O)O1
MIC (Staphylococcus aureus [6]): 0.7 µg/mL (≈ 2.36 µM) | MIC (Acinetobacter baumannii): 32 to 48 µg/mL (≈ 108 to 162 µM) | CC50 at 48 h [36]: 50 µg/mL (≈ 169 µM)

CCCCCCCCCC[C@@H]1CC(O)=C(C(=O)CCC)C(=O)O1
MIC (Staphylococcus aureus [6]): 0.6 to 0.8 µg/mL (≈ 1.85 to 2.47 µM) | MIC (Acinetobacter baumannii): 8 to 16 µg/mL (≈ 24.7 to 49.3 µM) | CC50 at 48 h [36]: 25 µg/mL (≈ 77.1 µM)

CCCCCCC[C@@H]1CC(O)=C(C(=O)CCC)C(=O)O1
MIC (Staphylococcus aureus [6]): 1 to 2 µg/mL (≈ 3.54 to 7.08 µM) | MIC (Acinetobacter baumannii): > 64 µg/mL

CCCCCCCCCCC[C@@H]1CC(O)=C(C(=O)CCC)C(=O)O1
MIC (Staphylococcus aureus [6]): 0.1 to 0.2 µg/mL (≈ 0.295 to 0.591 µM) | MIC (Acinetobacter baumannii): < 4 µg/mL | CC50 at 48 h [36]: 19 µg/mL (≈ 56.1 µM)

GENTAMICIN
MIC (Enterococcus faecium): > 256 µg/mL | MIC (Enterococcus faecalis [33]): > 256 µg/mL

CCCC(=O)C1=C(O)C[C@@H](CC)OC1=O
MIC (Staphylococcus aureus [6]): > 50 µg/mL | MIC (Acinetobacter baumannii): > 64 µg/mL | CC50 at 48 h [36]: > 100 µg/mL

NC[C@H]1O[C@H](O[C@H]2[C@H](O)[C@@H](O[C@H]3O[C@H](CO)[C@@H](O)[C@H](N)[C@H]3O)[C@H](N)C[C@@H]2N)[C@H](O)[C@@H](O)[C@@H]1O [KANAMYCIN]
MIC (Enterococcus faecium): > 256 µg/mL | MIC (Enterococcus faecalis [33]): > 256 µg/mL

CCCCCCCCC[C@@H]1CC(O)=C(C(C)=O)C(=O)O1
MIC (Staphylococcus aureus [6]): 1.5 to 2.5 µg/mL (≈ 5.31 to 8.85 µM) | MIC (Acinetobacter baumannii): > 64 µg/mL | CC50 at 48 h [36]: 71 µg/mL (≈ 251 µM)
